In patent US20070231273A1, “Method for Decreasing Blood Glucose Levels” (priority 2006, published 2007):
pIC50: −log10 of the molar value. Values belong to the compound of their own block, whether it stands above or below them.

Columns and labels:
[1] = system: sulfonylurea (SUR) receptors of KATP channels; conditions: rat cerebral cortex, hippocampus, and striatum; cited from earlier work
β-cell KATP channels [2] = biological target: T1, β-cell KATP channels (Rattus norvegicus, UniProt P70673+Q09429); assay: Cell-attached single channel recording of KATP channels; format: cell-based; design: the effects of iptakalim on KATP channels expressed in rat pancreatic β-cells were examined; endogenous in cells; host or cells: primary pancreatic β-cells from male adult Wistar rats
Procedure: (§1) Pancreatic β-cell isolation. Isolation of rat islets was performed as previously described. In short, male adult rats (Wistar) were anesthetized with diethyl ether, and 10 ml of Hank's buffered saline (HBSS) containing collagenase (200 U/ml, Wako Chem., Japan) was injected into the common bile duct. The pancreas, swollen with digestion solution, was quickly excised and incubated in a plastic culture bottle for 20 min at 37° C. The suspension obtained by shaking the bottle was filtered through 0.5 mm metal mesh and washed with HBSS, which included 2% bovine serum albumin (BSA). […] After washing with HBSS, which contained 2% BSA, islets were cultured for 24 h with 5% CO2 in the tissue culture medium. Separation of islets was carried out using dispase (1000 U/ml, Godo Shusei, Japan) as previously described. Separated cells were again cultured for 1-4 days. […] Patch-clamp recordings. Cultured β-cells were kept in a 35-mm Petri dish, and the dish was placed on the stage of an inverted microscope (IMT-2, Olympus, Tokyo, Japan). Membrane potentials and membrane currents were measured using a patch-clamp amplifier (EPC-7, List Electronic, Darmstadt, Germany). The nystatin-perforation method was used to measure the membrane potential and the standard method was used to measure whole-cell currents. […] In order to measure whole-cell membrane current, voltage ramp pulses from −90 to −50 mV were repeatedly applied using a ramp pulse generator (SET-2100, Nihon Kohden, Tokyo, Japan). […] Series resistance below 12 MΩ was accepted. Single channel current recordings were carried out by the cell-attached and inside-out configurations. All electrophysiological experiments were carried out at room temperature (22±1° C.). Data of single channel currents were low-pass filtered at 1 KHz, digitized at 10 KHz and analyzed using a single channel current analysis program (Clampfit 9.2, Axon Instruments, Foster City, Calif.). The concentration-inhibition curve created by iptakalim was fitted using Origin 5.0 (Microcal, North Hampton, Mass.).
(§2) Solutions and Drugs. The standard external solution contained (in mM): 135 NaCl, 5.6 KCl, 1.2 MgCl2, 1 CaCl2, 5 glucose, 10 HEPES and pH 7.3 adjusted with KOH. For perforated patch membrane potential recording, the pipette solution contained (in mM): 100 K-gluconate, 35 KCl, 5 glucose, 0.5 EGTA, 10 HEPES, 200 μg/ml nystatin (Sigma, St. Louis, Mo., USA) and pH 7.2. For conventional whole-cell current recording, the pipette solution contained (in mM): 100 K-gluconate, 35 KCl, 1.2 MgCl2, 5 glucose, 0.5 EGTA, 10 HEPES and pH 7.2. For cell-attached and inside-out single channel recordings, the pipette solution contained (in mM): 135 KCl, 1.2 MgCl2, 5 glucose, 0.5 EGTA, 10 HEPES and pH 7.3. The ionic composition of the solution inside the membrane (bath solution) in inside-out recordings was the same as the pipette solution, but the pH of this solution was 7.2. When performing inside-out recordings, ATP was added to the bath solution at various concentrations.

rat pancreatic β-cells = assay: Nystatin-perforation whole-cell recording in current-clamp mode (membrane potential); format: cell-based; conditions: 100 μM; for effect on membrane potential: in the presence of 10 μM nifedipine
Procedure: as §1
Solutions and Drugs. […]

rat pancreatic islets = assay: Measurement of insulin release from isolated islets (RIA); format: cell-based; conditions: versus basal at 5.5 mM glucose
Procedure: Measurement of insulin release. Isolated islets were hand-picked under microscopy, and ten islets were distributed to each 35-mm Petri dish with 3 ml of HBSS containing 5.5 mM glucose, 20 mM HEPES, and 2% BSA. After pre-incubation for 60 min, islets were exposed to 100 nM BIM for 60 min, and then stimulated by high glucose (22.5 mM), tolbutamide (0.5 mM) or iptakalim (0.1 mM) for 30 min. Before and after glucose stimulation, some samples were collected for measurement of immuno-reactive insulin (IRI), and stored at −20° C. until the assay. IRI was measured by RIA using anti-human insulin antibody with rat insulin standard (Radio-immunoassay Kit, Insulin “Eiken”, Tokyo Japan).
Iptakalim increased insulin release from rat pancreatic islets. Turning finally to FIG. 19, the effects of iptakalim were examined on insulin release. […] With glucose at 5.5 mM in the external solution, basal insulin secretion was observed. Application of 22.5 mM glucose increased insulin secretion about 3-fold (p<0.01, n=6), 500 μM tolbutamide increased insulin secretion about 2.5-fold (p<0.01, n=6), and 100 μM iptakalim increased insulin secretion about 1.5-fold (p<0.05, n=8). Each group was averaged from 5-7 cells tested. Vertical bars indicate SE.

[3] = cited from earlier work
KATP channel = conditions: cited from earlier work
β-cell KATP channels [4] = biological target: T1, β-cell KATP channels; assay: Conventional whole-cell voltage-clamp, ramp pulse-induced KATP channel currents; format: cell-based; design: the effects of iptakalim on KATP channels expressed in rat pancreatic β-cells were examined; endogenous in cells; host or cells: primary pancreatic β-cells from male adult Wistar rats; conditions: for effect on ramp pulse-induced KATP channel whole-cell current: ramp −90 to −50 mV, glucose 5.5 mM
Procedure: as §1
as §2, with “The ionic composition of the solution inside the membrane (bath solution) in inside-out recordings was the same as the pipette solution, but the pH of this solution was 7.2. When performing inside-out recordings, ATP was added to the bath solution at various concentrations.” left out

Kir6.2/SUR1 = biological target: T2, Kir6.2/SUR1 (Homo sapiens, UniProt Q09428+Q14654); assay: Transfected Kir6.2/SUR1 cell line (HEK 293), data not shown; format: cell-based
T2 construct: expressed in transfected cells; host or cells: HEK 293
Text: It is well known that KATP channels are expressed in a variety of tissues with different SUR subunits. For instance, cardiovascular KATP channels are formed by Kir6.2-SUR2A, pancreatic β-cell KATP channels are formed by Kir6.2-SUR1, while midbrain dopamine neurons are formed by Kir6.2-SUR1 (15,25-27) or Kir6.2-SUR2B. This diversity in SUR subunit expression results in different sensibilities to metabolic stress agents and KATP channel openers.

[5] = system: primary cultured hippocampal neurons; conditions: K+, but not Na+ and Ca2+; cited from earlier work
rat β-cells = assay: Fura-2 Ca2+ imaging of intracellular Ca2+ concentrations; format: cell-based; conditions: 100 μM bath-applied; sensitive to nifedipine
Procedure: Fura-2 Ca^2+ imaging. Isolated islets were placed in a glass-bottom culture dish and then loaded with a HEPES buffer solution (in mM: NaCl 140, KCl 4.7, MgCl2 1.2, CaCl2 1.0, glucose 10 and HEPES 10) containing 1 μM fura-2/AM (Dojin, Kumamoto, Japan) for 20 min at room temperature. Ca^+ images were captured using an inverted microscope with 40× Plan-Neofluar objectives (Axiovert 135, Zeiss, Oberkochen, Germany), a silicon intensifier target camera and recorded on a fluorescence-imaging system (Argus 50/CA, Hamamatsu Photonics, Hamamatsu, Japan). Excitation wavelengths were 340 nm and 380 nm, selected from a Xenon light source, and emission wavelength was 510 nm. A change in free intracellular Ca^2+ concentration ([Ca^2+]i) was calculated based on the change in ratio of two fluorescence intensities, F340/F380 (24). All microfluorimetric experiments were carried out at room temperature (22±1° C.).
Iptakalim elevated intracellular Ca^2+ concentrations. Referring to FIGS. 15-18, in order to test whether iptakalim-induced membrane depolarization triggers Ca^2+ influx through voltage-sensitive Ca^2+ channels, intracellular Ca^2+ concentrations were measured using fura-2 florescence imaging.

[6] = system: smooth muscle cells isolated from pulmonary artery; conditions: patch-clamp whole-cell; also isolated rat aorta denuded vascular endothelium; cited from earlier work
β-cell KATP channels [7] = biological target: T1, β-cell KATP channels; assay: Inside-out patch single channel recording of KATP channels; format: biochemical; design: the effects of iptakalim on KATP channels expressed in rat pancreatic β-cells were examined; endogenous in cells; host or cells: primary pancreatic β-cells from male adult Wistar rats; conditions: 100 μM
Procedure: Pancreatic β-cell isolation. Isolation of rat islets was performed as previously described. In short, male adult rats (Wistar) were anesthetized with diethyl ether, and 10 ml of Hank's buffered saline (HBSS) containing collagenase (200 U/ml, Wako Chem., Japan) was injected into the common bile duct. The pancreas, swollen with digestion solution, was quickly excised and incubated in a plastic culture bottle for 20 min at 37° C. The suspension obtained by shaking the bottle was filtered through 0.5 mm metal mesh and washed with HBSS, which included 2% bovine serum albumin (BSA). […] After washing with HBSS, which contained 2% BSA, islets were cultured for 24 h with 5% CO2 in the tissue culture medium. Separation of islets was carried out using dispase (1000 U/ml, Godo Shusei, Japan) as previously described. Separated cells were again cultured for 1-4 days. […] Patch-clamp recordings. Cultured β-cells were kept in a 35-mm Petri dish, and the dish was placed on the stage of an inverted microscope (IMT-2, Olympus, Tokyo, Japan). Membrane potentials and membrane currents were measured using a patch-clamp amplifier (EPC-7, List Electronic, Darmstadt, Germany). […] Data of single channel currents were low-pass filtered at 1 KHz, digitized at 10 KHz and analyzed using a single channel current analysis program (Clampfit 9.2, Axon Instruments, Foster City, Calif.). […]

β-cell KATP channels [8] = biological target: T1, β-cell KATP channels; assay: Preliminary experiments on β-cell KATP channels (data not shown); format: cell-based; design: endogenous in cells; host or cells: β-cells (preparation not described for these experiments)
[9] = 100 μM bath-application, Vp 0 mV

T1 sequence (P70673 whole entry): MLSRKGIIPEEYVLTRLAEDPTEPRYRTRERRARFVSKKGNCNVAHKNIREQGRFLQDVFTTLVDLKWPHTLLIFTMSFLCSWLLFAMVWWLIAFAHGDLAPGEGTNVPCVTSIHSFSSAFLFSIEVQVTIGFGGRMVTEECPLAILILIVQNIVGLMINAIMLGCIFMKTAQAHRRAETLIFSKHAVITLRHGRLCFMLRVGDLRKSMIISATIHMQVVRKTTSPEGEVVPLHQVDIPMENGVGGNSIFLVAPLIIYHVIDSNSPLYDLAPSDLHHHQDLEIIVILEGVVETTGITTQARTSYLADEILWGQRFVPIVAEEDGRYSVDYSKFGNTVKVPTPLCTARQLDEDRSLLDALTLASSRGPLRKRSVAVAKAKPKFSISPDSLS
T1 sequence (Q09429 whole entry): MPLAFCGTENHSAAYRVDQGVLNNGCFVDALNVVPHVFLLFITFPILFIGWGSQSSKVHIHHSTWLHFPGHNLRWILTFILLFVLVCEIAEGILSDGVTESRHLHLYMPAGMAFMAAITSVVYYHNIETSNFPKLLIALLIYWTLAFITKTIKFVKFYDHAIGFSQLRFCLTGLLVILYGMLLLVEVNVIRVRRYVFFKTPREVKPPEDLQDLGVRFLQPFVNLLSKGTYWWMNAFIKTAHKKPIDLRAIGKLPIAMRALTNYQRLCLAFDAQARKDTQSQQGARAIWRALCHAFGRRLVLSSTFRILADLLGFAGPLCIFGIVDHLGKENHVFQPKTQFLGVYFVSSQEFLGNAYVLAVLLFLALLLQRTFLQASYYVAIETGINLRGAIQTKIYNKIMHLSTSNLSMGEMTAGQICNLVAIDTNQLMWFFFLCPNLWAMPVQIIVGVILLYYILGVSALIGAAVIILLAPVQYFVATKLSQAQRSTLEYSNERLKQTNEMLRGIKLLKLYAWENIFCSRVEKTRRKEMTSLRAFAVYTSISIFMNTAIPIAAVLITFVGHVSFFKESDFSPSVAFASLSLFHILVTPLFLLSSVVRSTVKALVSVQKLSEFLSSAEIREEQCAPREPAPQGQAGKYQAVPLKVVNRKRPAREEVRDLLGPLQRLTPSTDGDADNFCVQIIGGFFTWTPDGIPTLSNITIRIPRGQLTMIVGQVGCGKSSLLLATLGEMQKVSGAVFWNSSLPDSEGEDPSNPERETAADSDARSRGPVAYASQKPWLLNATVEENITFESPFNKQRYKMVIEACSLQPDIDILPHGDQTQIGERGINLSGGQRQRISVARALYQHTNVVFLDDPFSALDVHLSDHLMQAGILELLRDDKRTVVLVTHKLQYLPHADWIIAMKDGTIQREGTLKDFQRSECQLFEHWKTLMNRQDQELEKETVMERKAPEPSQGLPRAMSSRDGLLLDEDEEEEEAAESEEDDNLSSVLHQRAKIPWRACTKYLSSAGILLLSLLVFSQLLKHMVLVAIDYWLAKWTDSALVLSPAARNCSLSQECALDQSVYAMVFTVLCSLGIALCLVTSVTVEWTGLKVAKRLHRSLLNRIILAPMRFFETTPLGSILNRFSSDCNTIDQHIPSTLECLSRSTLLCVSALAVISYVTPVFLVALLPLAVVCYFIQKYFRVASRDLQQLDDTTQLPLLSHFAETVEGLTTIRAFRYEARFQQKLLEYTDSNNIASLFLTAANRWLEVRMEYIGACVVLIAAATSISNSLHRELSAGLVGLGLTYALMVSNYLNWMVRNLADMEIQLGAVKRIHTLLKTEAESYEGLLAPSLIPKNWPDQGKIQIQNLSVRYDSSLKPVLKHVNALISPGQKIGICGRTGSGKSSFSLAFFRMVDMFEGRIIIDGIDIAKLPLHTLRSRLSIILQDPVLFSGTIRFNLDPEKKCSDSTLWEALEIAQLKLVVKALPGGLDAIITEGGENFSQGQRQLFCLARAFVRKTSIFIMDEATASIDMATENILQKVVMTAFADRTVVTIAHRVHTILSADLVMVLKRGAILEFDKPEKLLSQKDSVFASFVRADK
T2 sequence (Q14654 whole entry): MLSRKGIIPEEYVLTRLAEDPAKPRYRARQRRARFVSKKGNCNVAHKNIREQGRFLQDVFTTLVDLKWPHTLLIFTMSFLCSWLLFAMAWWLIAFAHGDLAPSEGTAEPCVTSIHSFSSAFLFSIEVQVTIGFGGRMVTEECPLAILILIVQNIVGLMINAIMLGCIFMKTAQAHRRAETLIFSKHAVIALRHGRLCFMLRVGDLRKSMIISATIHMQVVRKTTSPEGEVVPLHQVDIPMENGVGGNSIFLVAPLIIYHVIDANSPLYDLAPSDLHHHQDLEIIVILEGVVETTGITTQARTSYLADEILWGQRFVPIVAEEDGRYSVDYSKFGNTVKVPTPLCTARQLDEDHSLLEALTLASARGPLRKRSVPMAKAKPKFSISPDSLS
T2 sequence (Q09428 whole entry): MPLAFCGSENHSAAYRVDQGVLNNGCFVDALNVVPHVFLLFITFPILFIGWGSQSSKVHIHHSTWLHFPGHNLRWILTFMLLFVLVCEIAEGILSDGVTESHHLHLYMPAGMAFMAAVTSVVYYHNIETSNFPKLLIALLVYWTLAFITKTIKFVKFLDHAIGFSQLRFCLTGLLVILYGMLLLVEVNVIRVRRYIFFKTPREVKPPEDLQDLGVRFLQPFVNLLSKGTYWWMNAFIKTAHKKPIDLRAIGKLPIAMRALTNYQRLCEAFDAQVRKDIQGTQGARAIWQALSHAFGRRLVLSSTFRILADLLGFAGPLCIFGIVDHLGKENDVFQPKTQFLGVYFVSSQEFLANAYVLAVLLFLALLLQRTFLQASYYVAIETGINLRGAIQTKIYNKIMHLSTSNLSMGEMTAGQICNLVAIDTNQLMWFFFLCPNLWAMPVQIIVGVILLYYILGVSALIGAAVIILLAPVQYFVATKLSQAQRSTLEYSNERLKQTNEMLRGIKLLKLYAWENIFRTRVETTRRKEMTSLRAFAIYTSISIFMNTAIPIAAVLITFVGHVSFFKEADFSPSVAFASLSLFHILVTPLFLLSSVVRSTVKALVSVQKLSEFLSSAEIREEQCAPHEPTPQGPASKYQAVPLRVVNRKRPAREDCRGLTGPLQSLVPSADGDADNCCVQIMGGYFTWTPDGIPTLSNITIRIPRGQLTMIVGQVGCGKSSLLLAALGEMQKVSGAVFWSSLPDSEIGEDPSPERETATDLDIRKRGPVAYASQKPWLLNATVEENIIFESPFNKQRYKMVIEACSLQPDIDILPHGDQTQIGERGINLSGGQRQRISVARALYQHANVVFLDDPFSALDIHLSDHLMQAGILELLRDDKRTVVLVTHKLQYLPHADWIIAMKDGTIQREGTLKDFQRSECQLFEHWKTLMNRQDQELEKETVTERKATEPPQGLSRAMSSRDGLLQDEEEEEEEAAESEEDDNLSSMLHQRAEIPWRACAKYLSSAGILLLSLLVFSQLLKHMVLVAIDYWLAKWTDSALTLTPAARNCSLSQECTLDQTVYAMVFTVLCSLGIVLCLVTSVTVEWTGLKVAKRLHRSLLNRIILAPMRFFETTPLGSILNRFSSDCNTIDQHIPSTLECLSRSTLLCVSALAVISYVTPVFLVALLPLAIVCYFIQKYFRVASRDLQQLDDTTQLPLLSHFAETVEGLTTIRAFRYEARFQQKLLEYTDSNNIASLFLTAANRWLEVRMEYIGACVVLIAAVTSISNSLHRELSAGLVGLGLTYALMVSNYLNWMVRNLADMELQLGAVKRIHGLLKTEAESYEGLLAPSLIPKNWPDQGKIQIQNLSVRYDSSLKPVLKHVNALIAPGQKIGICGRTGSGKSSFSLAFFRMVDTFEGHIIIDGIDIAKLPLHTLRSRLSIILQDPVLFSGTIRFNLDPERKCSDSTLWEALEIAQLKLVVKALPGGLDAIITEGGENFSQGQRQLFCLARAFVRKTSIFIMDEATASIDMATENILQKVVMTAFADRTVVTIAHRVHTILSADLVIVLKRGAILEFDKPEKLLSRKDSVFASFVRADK

SMILES: CCC(C)(C)N=C(NC#N)Nc1cccnc1 [P1075]
displacement of [3H]iptakalim binding [1]: displaced

SMILES: CC1=NS(=O)(=O)c2cc(Cl)ccc2N1 [diazoxide, reference compound]
effect on KATP channel activity (β-cell KATP channels [2]; [9]): dramatically enhanced KATP channel activity
effect on membrane potential (rat pancreatic β-cells): remarkably hyperpolarized the membrane

Hill coefficient of block of KATP channel current (β-cell KATP channels [4]; whole-cell, concentration-inhibition curve): 0.7
pIC50 (β-cell KATP channels [4]; whole-cell, concentration-inhibition curve, read-out: IC50 of block of KATP channel current): 5.48
effect on KATP channel activity (β-cell KATP channels [2]; [9]): reduced channel activities
effect on KATP channel activity (β-cell KATP channels [2]; 100 μM, Vp −60 mV): reduced KATP channel activity
open-time probability of KATP channels (β-cell KATP channels [2]; during application of 100 μM, before application 0.43±0.0438, Vp 0 mV): 0.121±0.026
current amplitude of KATP channels (β-cell KATP channels [2]; during application of 100 μM, before application 3.51±0.17 pA, Vp 0 mV): 3.16±0.14 pA
mean open time of KATP channels (β-cell KATP channels [2]; during application of 100 μM, before application 5.95±0.62 ms, Vp 0 mV): 8.78 ± 0.81 ms
sensitivity of Kir6.2/SUR1 channels (opening) (Kir6.2/SUR1): insensitivity
mean open-time probability (β-cell KATP channels [7]; absence of ATP, reduced from 0.359±0.065): 0.145±0.041
mean open-time probability (β-cell KATP channels [7]; presence of 10 μM ATP, reduced from 0.222±0.042): 0.103±0.029
SMILES: CC(C)NC(C)(C)C(C)C.Cl [iptakalim, N-(1-methylethyl)-1,1,2-trimethyl-propylamine hydrochloride]
increase of insulin secretion (rat pancreatic islets; 100 μM): about 1.5 fold
water solubility [3]: water-soluble
displacement of specific binding of [3H]P1075 (KATP channel): displaced by iptakalim in a concentration-dependent manner
effect on ramp pulse-induced KATP channel whole-cell current (β-cell KATP channels [4]; 100 μM bath-application): reduced the magnitude of the KATP channel current
effect on voltage-activated currents [5]: selectively enhanced voltage-activated K^+
effect on intracellular Ca2+ concentrations (rat β-cells): induced elevation of intracellular Ca^2+ concentrations
effect on K+ currents [6]: significantly enhanced K^+ currents
effect on membrane potential and action potential firing (rat pancreatic β-cells; 5.5 mM glucose in external solution): slowly depolarized the membrane and elicited action potential firing
effect on membrane potential (rat pancreatic β-cells): clearly depolarized the membrane

SMILES: CC(N/C(=N\C#N)Nc1ccncc1)C(C)(C)C (stereo not shown) [pinacidil]
effect on β-cell KATP channels (β-cell KATP channels [8]): showed inhibition of β-cell KATP channels
displacement of [3H]iptakalim binding [1]: displaced

sensitivity of spontaneous single channel activities (β-cell KATP channels [2]; 500 μM bath-applied, Vp −60 mV): very sensitive
SMILES: CCCCNC(=O)NS(=O)(=O)c1ccc(C)cc1 [tolbutamide, reference compound]
increase of insulin secretion (rat pancreatic islets; 500 μM): about 2.5 fold
effect on ramp pulse-induced KATP channel whole-cell current (β-cell KATP channels [4]; 500 μM): reversibly abolished the size of the current
effect on KATP channel activity (β-cell KATP channels [2]; 500 μM bath-application, Vp 0 mV): completely abolished KATP channel activity
